Patent publication US6194437A (Warner-Lambert Company, priority 1999, dated 2001)

What was measured:
[1] = target: T1, cloned human NMB-preferring receptor (BB1) (Homo sapiens, UniProt P28336); test: Receptor binding assay, cloned human NMB-preferring receptor (BB1), [125I][Tyr4]bombesin displacement; conditions: CHO-K1 cell membranes, 60 minutes incubation
T1 construct: expressed in transfected cells
Protocol: (§1) For binding experiments, cells were harvested by trypsinization, and stored frozen at -70° C. in Ham's F12 culture medium containing 5% DMSO until required. On the day of use, cells were thawed rapidly, diluted with an excess of culture medium, and centrifuged for 5 minutes at 2000 g. Cells were resuspended in 50 mM Tris-HCl assay buffer (pH 7.4 at 21° C., containing 0.02% BSA, 40 μg/ml bacitracin, 2 μg/mL chymostatin, 4 μg/mL leupeptin, and 2 μM phosphoramidon), counted, and polytronned (setting 5, 10 sec) before centrifuging for 10 minutes at 28,000 g. The final pellet was resuspended in assay buffer to a final cell concentration of 1.5×10^5 /mL. […] Radioactivity bound was determined using a gamma counter.

[2] = target: T2, cloned human GRP-preferring receptor (BB2) (Homo sapiens, UniProt P30550); test: Receptor binding assay, cloned human GRP-preferring receptor (BB2), [125I][Tyr4]bombesin displacement; conditions: CHO-K1 cell membranes, 90 minutes incubation
T2 construct: expressed in transfected cells
Protocol: as §1, with “The compounds of the invention have been evaluated in receptor binding assays which measure the affinity of the novel compounds in a cloned human NMB-preferring receptor (BB1) assay and in a cloned human GRP-preferring receptor (BB2) assay. Protocol for Binding Assays […] For” for “For”

T1 sequence (P28336 whole entry): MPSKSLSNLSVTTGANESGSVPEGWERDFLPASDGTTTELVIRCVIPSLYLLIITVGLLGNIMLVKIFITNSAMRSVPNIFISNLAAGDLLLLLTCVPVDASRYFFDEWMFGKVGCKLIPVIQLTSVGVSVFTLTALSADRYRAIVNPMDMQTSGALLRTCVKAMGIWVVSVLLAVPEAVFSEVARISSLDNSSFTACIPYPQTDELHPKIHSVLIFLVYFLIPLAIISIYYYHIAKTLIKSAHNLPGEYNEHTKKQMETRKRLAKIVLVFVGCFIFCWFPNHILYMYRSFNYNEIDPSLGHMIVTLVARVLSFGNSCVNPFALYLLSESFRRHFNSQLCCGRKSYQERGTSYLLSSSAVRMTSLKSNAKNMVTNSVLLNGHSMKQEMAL
T2 sequence (P30550 whole entry): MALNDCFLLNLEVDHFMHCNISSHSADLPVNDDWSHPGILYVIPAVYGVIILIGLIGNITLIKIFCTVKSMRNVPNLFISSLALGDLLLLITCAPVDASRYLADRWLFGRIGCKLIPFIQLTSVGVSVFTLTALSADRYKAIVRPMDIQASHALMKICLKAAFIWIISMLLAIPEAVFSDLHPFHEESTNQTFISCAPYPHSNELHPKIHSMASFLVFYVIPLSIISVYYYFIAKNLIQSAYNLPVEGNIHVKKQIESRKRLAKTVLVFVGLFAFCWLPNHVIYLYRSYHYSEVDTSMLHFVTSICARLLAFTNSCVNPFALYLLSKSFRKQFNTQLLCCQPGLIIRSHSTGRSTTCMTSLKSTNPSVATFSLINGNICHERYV

| Ki [1] | Ki [2] | SMILES |
| --- | --- | --- |
| 95 nM |  | CC(C)c1cccc(C(C)C)c1NC(=O)NC(C)(Cc1c[nH]c2ccccc12)C(=O)N[C@H]1COC(C)(C)O[C@H]1c1ccccc1 (single isomer, unassigned) [Example 25] |
| 130 nM | > 10000 nM | CC(C)c1cccc(C(C)C)c1NC(=O)N[C@](C)(Cc1c[nH]c2ccccc12)C(=O)N[C@H]1CCc2ccccc21 [Example 3, 2-[3-(2,6-Diisopropyl-phenyl)-ureido]-N-indan-1-yl-3-(1H-indol-3-yl)-2-methyl-propionamide] |
| 215 nM | > 10000 nM | CC(C)c1cccc(C(C)C)c1NC(=O)NC(C)(Cc1c[nH]c2ccccc12)C(=O)NCCC1CCCCC1 (stereo not drawn) [Example 4, N-(2-Cyclohexyl-ethyl)-2-[3-(2,6-diisopropyl-phenyl)-ureido]-3-(1H-indol-3-yl)-2-methyl-propionamide] |
| 942 nM | > 10000 nM | CC(C)c1cccc(C(C)C)c1NC(=O)NC(C)(Cc1c[nH]c2ccccc12)C(=O)Nc1ccccc1 (stereo not drawn) [Example 5] |
| 783 nM | > 10000 nM | CC(C)c1cccc(C(C)C)c1NC(=O)N[C@](C)(Cc1c[nH]c2ccccc12)C(=O)N[C@H]1CCCC[C@H]1c1ccccc1 [Example 6, 2-[3-(2,6-Diisopropyl-phenyl)-ureido]-3-(1H-indol-3-yl)-2-methyl-N-(2-phenyl-cyclohexyl)-propionamide] |
| 487 nM | > 10000 nM | CC(C)c1cccc(C(C)C)c1NC(=O)NC(Cc1c[nH]c2ccccc12)C(=O)N(C)CC1CCCCC1 (stereo not drawn) [Example 7, N-Cyclohexylmethyl-2-[3-(2,6-diisopropyl-phenyl)-ureido]-3-(1H-indol-3-yl)-N-methyl-propionamide] |
| 3 nM | 450 nM | CC(Cc1c[nH]c2ccccc12)(NC(=O)Nc1ccc([N+](=O)[O-])cc1)C(=O)NCC1CCCCC1 (stereo not drawn) [Example 8] |
| 3.3 nM | 1130 nM | CC(Cc1c[nH]c2ccccc12)(NC(=O)Nc1ccc([N+](=O)[O-])cc1)C(=O)NCC1(O)CCCCC1 (stereo not drawn) [Example 9] |
| 758 nM | 1460 nM | CC(C)c1cccc(C(C)C)c1NC(=O)N(C)C(Cc1c[nH]c2ccccc12)C(=O)NCC1CCCCC1 (stereo not drawn) [Example 10, N-Cyclohexylmethyl-2-[3-(2,6-diisopropyl-phenyl)-1-methyl-ureido]-3-(1H-indol-3-yl)-propionamide] |
| 103 nM | > 10000 nM | CC(C)c1cccc(C(C)C)c1NC(=O)N[C@@](C)(Cc1c[nH]c2ccccc12)C(=O)NCC1CCCCC1 [Example 11, N-Cyclohexylmethyl-2-[3-(2,6-diisopropyl-phenyl)-ureido]-3-(1H-indol-3-yl)-2-methyl-propionamide] |
| 0.7 nM | 60 nM | C[C@H](NC(=O)N[C@@](C)(Cc1c[nH]c2ccccc12)C(=O)NCC1(c2ccccn2)CCCCC1)c1ccc([N+](=O)[O-])cc1 [Example 12] |
| 0.3 nM | 38 nM | C[C@@](Cc1c[nH]c2ccccc12)(NC(=O)Nc1ccc(C#N)cc1)C(=O)NCC1(c2ccccn2)CCCCC1 [Example 13] |
| 2 nM | 165 nM | C[C@@](Cc1c[nH]c2ccccc12)(NC(=O)Nc1ccc(C(F)(F)F)cc1)C(=O)NCC1(c2ccccn2)CCCCC1 [Example 15] |
| 3 nM | 140 nM | CCOC(=O)c1ccc(NC(=O)N[C@@](C)(Cc2c[nH]c3ccccc23)C(=O)NCC2(c3ccccn3)CCCCC2)cc1 [Example 16] |
| 3310 nM | 2940 nM | COc1cccc(OC)c1NC(=O)NC(C)(Cc1c[nH]c2ccccc12)C(=O)NCC1CCCCC1 (stereo not drawn) [Example 17, N-Cyclohexylmethyl-2-[3-(2,6-dimethoxy-phenyl)ureido]-3-(1H-indol-3-yl)-2-methyl-propionamide] |
| 25 nM | > 10000 nM | CC(C)c1cccc(C(C)C)c1NC(=O)[C@H](Cc1c[nH]c2ccccc12)NC(=O)NC(c1ccccc1)C(C)(C)C (stereo partly drawn) [Example 18, (S)-N-(2,6-Diisopropyl-phenyl)-2-[3-(2,2-dimethyl-1-phenyl-propyl)-ureido]-3-(1H-indol-3-yl)-propionamide] |
| 3 nM | 762 nM | CC(C)c1cccc(C(C)C)c1NC(=O)NC(C)(Cc1cccc[n+]1[O-])C(=O)NCC1(c2ccccn2)CCCCC1 (stereo not drawn) [Example 19, 2-[3-(2,6-Diisopropyl-phenyl)-ureido]-2-methyl-3-(1-oxy-pyridin-2-yl)-N-(1-pyridin-2-yl-cyclohexylmethyl)-propionamide] |
| 33 nM | > 10000 nM | CC(C)c1cccc(C(C)C)c1NC(=O)NC(C)(Cc1ccccc1C(F)(F)F)C(=O)NCC1(c2ccccn2)CCCCC1 (stereo not drawn) [Example 20] |
| 20 nM | 2550 nM | CC(C)c1cccc(C(C)C)c1NC(=O)NC(C)(Cc1ccccc1[N+](=O)[O-])C(=O)NCC1(c2ccccn2)CCCCC1 (stereo not drawn) [Example 21] |
| 35 nM | 589 nM | CC(C)c1cccc(C(C)C)c1NC(=O)NC(C)(Cc1ccccn1)C(=O)NCC1(c2ccccn2)CCCCC1 (stereo not drawn) [Example 22, 2-[3-(2,6-Diisopropyl-phenyl)-ureido]-2-methyl-3-pyridin-2-yl-N-(1-pyridin-2-yl-cyclohexylmethyl)-propionamide] |
| 16 nM | 5360 nM | CC(C)c1cccc(C(C)C)c1NC(=O)NC(Cc1c[nH]cn1)C(=O)NCC1(c2ccccn2)CCCCC1 (stereo not drawn) [Example 23] |
| 413 nM | > 10000 nM | CC(C)c1cccc(C(C)C)c1N(C)C(=O)NC(C)(Cc1c[nH]c2ccccc12)C(=O)NCC1CCCCC1 (stereo not drawn) [Example 24] |
| 0.25 nM | 29 nM | Cc1nc(C2(CNC(=O)C(C)(Cc3c[nH]c4ccccc34)NC(=O)Nc3ccc([N+](=O)[O-])cc3)CCCCC2)cs1 (stereo not drawn) [Example 26] |
|  | 1 nM | COc1ccc(C2(CNC(=O)C(C)(Cc3c[nH]c4ccccc34)NC(=O)Nc3ccc([N+](=O)[O-])cc3)CCCCC2)nc1 (stereo not drawn) [Example 27] |
| 0.81 nM | 79 nM | CN(C)Cc1ccc(C2(CNC(=O)C(C)(Cc3c[nH]c4ccccc34)NC(=O)Nc3ccc([N+](=O)[O-])cc3)CCCCC2)cc1 (stereo not drawn) [Example 28] |
| 10 nM | > 10000 nM | CC(Cc1c[nH]c2ccccc12)(NC(=O)Nc1ccc([N+](=O)[O-])cc1)C(=O)NCC(c1ccccc1)N1CCCCC1 (stereo not drawn) [Example 29] |
| 0.17 nM | 21 nM | CC(Cc1c[nH]c2ccccc12)(NC(=O)Nc1ccc([N+](=O)[O-])cc1)C(=O)NCC1(c2c[nH]cn2)CCCCC1 (stereo not drawn) [Example 31] |
| 0.17 nM | 20 nM | COc1ccc(C2(CNC(=O)C(C)(Cc3c[nH]c4ccccc34)NC(=O)Nc3ccc(C#N)cc3)CCCCC2)nc1 (stereo not drawn) [Example 32] |
